Here are results for eight compounds from paper PMC12321279, “Novel 4,5‐Dihydrothiazole‐Phenylpiperazine Derivatives: Synthesis, Docking Studies and Pharmacological Evaluation as Serotonergic Agents” (Chemmedchem, 2025).

Where two headings read alike, the source gives them in different places.

The target in test [1] is T1, 5‐HT1A receptor (Rattus norvegicus, UniProt P19327).
T1 construct: 80 μg of hippocampal membrane suspension (the 5‐HT1A assay); from tissue; host or cells: rat (Sprague-Dawley) hippocampus membranes
T1 sequence (P19327 1-422): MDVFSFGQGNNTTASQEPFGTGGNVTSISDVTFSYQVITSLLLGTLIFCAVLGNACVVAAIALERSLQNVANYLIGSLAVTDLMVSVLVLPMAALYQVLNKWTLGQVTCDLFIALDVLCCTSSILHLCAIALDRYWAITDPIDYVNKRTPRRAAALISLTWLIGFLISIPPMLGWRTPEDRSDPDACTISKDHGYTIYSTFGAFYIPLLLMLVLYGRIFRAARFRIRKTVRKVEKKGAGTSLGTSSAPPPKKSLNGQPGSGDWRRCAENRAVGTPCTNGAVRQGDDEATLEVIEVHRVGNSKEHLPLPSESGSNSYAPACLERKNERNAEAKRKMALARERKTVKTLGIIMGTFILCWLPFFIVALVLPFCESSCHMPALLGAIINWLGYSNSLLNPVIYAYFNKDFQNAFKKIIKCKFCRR
The experiment in a line: 5‐HT1A receptor activation in the [35S]GTP‐γ‐S assay (hippocampal membranes). Type of test: biochemical. The conditions noted are these: [35S]GTPγS; for Emax / Emax (%) ± SEM, 5‐HT1A receptor G‐protein stimulation / pEC50, 5‐HT1A receptor G‐protein stimulation / EC50 (95% CI, μM), 5‐HT1A receptor G‐protein stimulation / EC50: rat hippocampal membranes; for Emax: read-out: Emax (%) ± SEM, 5‐HT1A receptor G‐protein stimulation; for agonist activity for the 5‐HT1A receptor (classification in words): efficacy compared with 8‐OH‐DPAT. How it is done:
Seven compound concentrations equally spaced on a log scale (10–4 M to 10–10 M) were incubated in duplicate with hippocampal membrane preparations (5μg per well) in assay buffer (50 mM Tris‐HCl, pH = 7.4, 1 mM EGTA, 3 mM MgCl2, 100 mM NaCl, and 30 μM GDP) and 0.08 nM [^35S]GTP‐γ‐S (specific activity: 1250 Ci mmole^−1, Revvity). Nonspecific binding was determined with 10μM of unlabeled GTP‐γ‐S. The final DMSO concentration in the assay was 5%. The reaction mixture was incubated for 90 min. at 30 °C on an orbital shaker set at 250 rpm. Next, the reaction mixture was deposited under vacuum with the FilterMate Harvester (Revvity, USA) onto Unifilter GF/C Plates (Revvity, MA, USA) presoaked with wash buffer (50 mM Tris‐HCl, pH = 7.4). The wells were then rapidly washed with 2 mL of wash buffer. Filter plates were dried overnight at room temperature. Once completely dry, 35 μl of MicroScint PS (Revvity, MA, USA) scintillation fluid was added to each well. Radioactivity was counted in a MicroBeta2 LumiJet scintillation counter (Revvity, MA, USA). Data were analyzed with GraphPad Prism 5.0 software (GraphPad Software, San Diego California USA, www.graphpad.com). The curves were fitted with three‐parameter non‐linear regression model.
Background: GTPγS is a poorly hydrolysed GTP analogue; its binding reports G protein activation.

Test [2] has as its target T2, 5‐HT2C receptor (Rattus norvegicus, UniProt P08909).
T2 construct: 10 μM pargyline and 160μg of the frontal cortex membrane suspension; from tissue; host or cells: rat (Sprague-Dawley) frontal cortex membranes
T2 sequence (P08909 33-460): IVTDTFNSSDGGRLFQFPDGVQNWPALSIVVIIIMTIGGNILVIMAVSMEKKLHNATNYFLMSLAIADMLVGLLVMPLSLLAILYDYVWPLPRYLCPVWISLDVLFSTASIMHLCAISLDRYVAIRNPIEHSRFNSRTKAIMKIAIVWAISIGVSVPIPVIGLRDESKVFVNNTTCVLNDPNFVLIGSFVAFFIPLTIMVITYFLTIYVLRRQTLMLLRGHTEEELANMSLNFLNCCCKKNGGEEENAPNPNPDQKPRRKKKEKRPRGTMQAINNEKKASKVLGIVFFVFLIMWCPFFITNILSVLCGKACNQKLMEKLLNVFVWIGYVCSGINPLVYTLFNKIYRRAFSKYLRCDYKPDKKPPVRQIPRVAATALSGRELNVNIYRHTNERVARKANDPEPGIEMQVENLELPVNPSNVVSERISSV
The experiment in a line: 5‐HT2C competition binding assay ([3H]mesulergine, frontal cortex membranes). Conditions: 5 nM [3H]mesulergine. How it is done:
(§1) Sprague‐Dawley rats were sacrificed by isoflurane overdose. Brains were rapidly removed and placed on ice. Hippocampi (for the 5‐HT1A assay) and frontal cortices (for the 5‐HT2A and 5‐HT2C assays) were dissected on a Petri dish. The tissue from 10 rats was homogenized in 30 vol. homogenization buffer (50 mM Tris–HCl, […], 1 mM EDTA, 1 mM dithiothreitol) with a handheld Teflon‐glass homogenizer. The homogenate was centrifuged at 48,000 × g at 4 °C for 15 min. The pellet was suspended and homogenized in the homogenization buffer and incubated for 10 min. at 36 °C. The centrifugation and suspension steps were repeated twice. The final pellet was homogenized in 5 vol. 50 mM Tris–HCl, pH = 7.4 buffer and stored at −80 °C for no longer than 6 months. […] For the 5‐HT2C assay, compounds were incubated in duplicate with 5 nM [^3H]mesulergine (specific activity: 80.2 Ci mmol^−1, Revvity, MA, USA) for 60 min. at 36 °C in a 50 mM Tris‐HCl (pH 7.4) buffer, supplemented with 5 mM MgCl2, 140 mM NaCl, 1 mM DTT, 1 mM CaCl2, 10 μM pargyline and 160μg of the frontal cortex membrane suspension. Non‐specific binding was determined with 10μM serotonin. The final DMSO concentration in the assay was 5%. After incubation, the reaction mixture was deposited onto Unifilter GF/C plates (Revvity, MA, USA) presoaked in 0.4% PEI (or 0.4% PEI and 0.5% Triton X‐100 for the 5‐HT2C assay) for 1 h with the FilterMate‐96 Harvester (Revvity, MA, USA). Then, each well was washed with 2 mL of 50 mM Tris–HCl (pH 7.4) buffer to separate bound ligands from free and the plates were left to dry overnight. Then, 35μl of Microscint‐20 scintillation fluid (Revvity, MA, USA) was added to each filter well and left to equilibrate for 2h. Filter‐bound radioactivity was counted in a MicroBeta2 LumiJet scintillation counter (Revvity, MA, USA). Binding curves were fitted with one site non‐linear regression. Binding affinity (pKi and Ki) for each compound was calculated from the […] values with the Cheng‐Prusoff equation from two separate experiments.

Test [3] has as its target 5‐HT2A receptor (Rattus norvegicus, UniProt P14842). The experiment in a line: 5‐HT2A competition binding assay ([3H]ketanserin, frontal cortex membranes). Further details: from tissue; host or cells: rat (Sprague-Dawley) frontal cortex membranes. The conditions noted are these: 1 nM [3H]ketanserin.
Test [4] addresses T1, 5‐HT1A receptor. As to the kind of experiment: 5‐HT1A competition binding assay ([3H]8‐OH‐DPAT, hippocampal membranes). The conditions noted are these: 1 nM [3H]8‐OH‐DPAT. The method, then:
as §1

Where [5] appears, read: 95% CI in brackets, read-out: 5‐HT2C Ki (95% CI).
Setting [6] is: 95% CI in brackets, read-out: 5‐HT2A Ki (95% CI).
The mark [7] stands for this setting: 95% CI in brackets, read-out: 5‐HT1A Ki (95% CI).
Setting [8] is: read-out: 5‐HT1A pKi (converted).
[9] abbreviates: read-out: 5‐HT2C pKi (converted).
[10] abbreviates: 95% CI in brackets, read-out: EC50 (95% CI, μM), 5‐HT1A receptor G‐protein stimulation.

Sequence of 5‐HT2A receptor (P14842 whole entry): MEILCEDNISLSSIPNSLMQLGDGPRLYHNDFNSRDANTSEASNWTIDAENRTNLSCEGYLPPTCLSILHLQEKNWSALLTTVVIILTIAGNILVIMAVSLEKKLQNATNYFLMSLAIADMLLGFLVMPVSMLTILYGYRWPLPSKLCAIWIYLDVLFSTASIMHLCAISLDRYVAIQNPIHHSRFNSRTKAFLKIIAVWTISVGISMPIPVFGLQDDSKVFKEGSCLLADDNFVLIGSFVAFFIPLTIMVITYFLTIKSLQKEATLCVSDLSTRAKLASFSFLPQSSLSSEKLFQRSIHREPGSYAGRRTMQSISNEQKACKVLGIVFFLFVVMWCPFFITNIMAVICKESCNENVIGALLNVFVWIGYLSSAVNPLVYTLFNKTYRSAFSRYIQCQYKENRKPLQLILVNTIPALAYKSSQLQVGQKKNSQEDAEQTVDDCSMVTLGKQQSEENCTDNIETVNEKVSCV

`CCCN(CCC)C1CCc2cccc(O)c2C1` (stereo not shown) [8‐OH‐DPAT, 8‐hydroxy‐dipropylaminotetraline, reference compound]: the Emax in test [1] is 177 ± 1.2%.

As for `O=C(NCCCN1CCN(c2ccc(C3=NCCS3)cc2)CC1)c1ccccn1` [FG‐3, N‐(3‐(4‐(4‐(4,5‐dihydrothiazol‐2‐yl) phenyl) piperazin‐1‐yl) propyl) picolinamide], the Ki in test [2] (setting [5]) is 1.46 µM; in test [3] (setting [6]), 6.3 µM; in test [4] (setting [7]), 4.5 µM; in test [4] (setting [8]), 4.57 µM. In addition, the “Emax (%) ± SEM, 5‐HT1A receptor G‐protein stimulation” value in test [1] is on record as “No activity”. Besides, the “pEC50, 5‐HT1A receptor G‐protein stimulation” value in test [1] is “No activity”. In addition, in test [1] (95% CI in brackets), the “EC50 (95% CI, μM), 5‐HT1A receptor G‐protein stimulation” value is reported as “No activity”. Besides, in test [1], the “agonist activity for the 5‐HT1A receptor (classification in words)” value is “do not express any agonist activity”.

Regarding `O=C1C2C3C=CC(C3)C2C(=O)N1OCCCN1CCN(c2ccc(C3=NCCS3)cc2)CC1` (stereo not shown) [FG‐9, 2‐(3‐(4‐(4‐(4,5‐dihydrothiazol‐2‐yl) phenyl) piperazin‐1‐yl) propoxy)‐3a,4,7,7a‐tetrahydro‐1H‐4,7‐methanoisoindole‐1,3(2H)‐dione], the Ki in test [2] (setting [5]) came out at 2.03 µM. Besides, the Ki in test [3] (setting [6]) amounted to 14.1 µM. For the same compound, in test [1], the “Emax (%) ± SEM, 5‐HT1A receptor G‐protein stimulation” value was “No activity”; the “pEC50, 5‐HT1A receptor G‐protein stimulation” value is “No activity”; the “agonist activity for the 5‐HT1A receptor (classification in words)” value is “do not express any agonist activity”. Also, the “EC50 (95% CI, μM), 5‐HT1A receptor G‐protein stimulation” value in test [1] (95% CI in brackets) is reported as “No activity”. Moreover, the Ki in test [4] (setting [8]) was 72.4 µM.

Regarding `O=C1C2C3C=CC(O3)C2C(=O)N1OCCCN1CCN(c2ccccc2C2=NCCS2)CC1` (stereo not shown) [FG‐10, 2‐(3‐(4‐(2‐(4,5‐dihydrothiazol‐2‐yl) phenyl) piperazin‐1‐yl) propoxy)‐3a,4,7,7a‐tetrahydro‐1H‐4,7‐epoxyisoindole‐1,3(2H)‐dione], the Ki in test [2] (setting [9]) is 3.24 µM; in test [3] (setting [6]) it was 3.84 µM; in test [4] (setting [7]), 0.61 µM. Further, in test [1] (setting [10]), the EC50 worked out at 52 µM. In test [1], the Emax stood at 120 ± 14.9%.

On to `O=C1C2C3C=CC(O3)C2C(=O)N1OCCCN1CCN(c2ccc(C3=NCCS3)cc2)CC1` (stereo not shown) [FG‐12, 2‐(3‐(4‐(4‐(4,5‐dihydrothiazol‐2‐yl) phenyl) piperazin‐1‐yl) propoxy)‐3a,4,7,7a‐tetrahydro‐1H‐4,7‐epoxyisoindole‐1,3(2H)‐dione], for which the Ki in test [2] (setting [5]) was 0.286 µM; in test [3] (setting [6]) it was 6.93 µM; in test [4] (setting [8]), 63.1 µM. For the same compound, in test [1] (setting [10]), the EC50 came to 46.2 µM. Moreover, the maximal effect (Emax) in test [1] came out at 135 ± 18.2%.

In the case of `O=C(NCCCN1CCN(c2ccccc2C2=NCCS2)CC1)C1CC2C=CC1C2` (stereo not drawn) [FG‐13, Exo‐N‐(3‐(4‐(2‐(4,5‐dihydrothiazol‐2‐yl)phenyl)piperazin‐1‐yl)propyl) bicyclo [2.2.1] hept‐5‐ene‐2‐carboxamide], the Ki in test [2] (setting [9]) is 0.794 µM; in test [3] (setting [6]) it was 3.54 µM; in test [4] (setting [7]), 0.22 µM. In test [1] (setting [10]), the EC50 was 79.6 µM. In test [1], the Emax was 132 ± 8.4%.

On to `O=C(NCCCN1CCN(c2ccc(C3=NCCS3)cc2)CC1)C1CC2C=CC1C2` (stereo not drawn) [FG‐15, Exo‐N‐(3‐(4‐(4‐(4,5‐dihydrothiazol‐2‐yl)phenyl)piperazin‐1‐yl)propyl) bicyclo [2.2.1] hept‐5‐ene‐2‐carboxamide], for which the Ki in test [2] (setting [5]) was 2.36 µM; in test [2] (setting [9]), 2.4 µM; in test [3] (read-out: 5‐HT2A pKi (converted)) it was 4.47 µM; in test [4] (setting [8]) it was 17.8 µM. Besides, the EC50 is 88.1 µM in test [1] (setting [10]) and 89.1 µM in test [1] (read-out: pEC50, 5‐HT1A receptor G‐protein stimulation (converted)). Moreover, in test [1], the Emax worked out at 137 ± 4.7%.

`COc1cc(OC)c(C(=O)CCCCN2CCC3(CC2)NC(=O)NC3=O)cc1NS(=O)(=O)c1ccc(C(F)(F)F)cc1` [RS‐102 221, reference compound]: the “5‐HT2C pKi” value in test [2] is recorded as 8.24 ± 0.23. The Ki in test [2] (setting [5]) turned out to be 0.0057 µM.

One may read the Emax as the greatest response seen or fitted, relative to the assay's reference.
